The values that follow come from patent US10988456B2, “O-aminoheteroaryl alkynyl-containing compound, preparation method therefor, and use thereof” (SHANGHAI INSTITUTE OF MATERIA MEDICA, CHINESE ACADEMY OF …, priority 2017, dated 2021).

“Also recorded” adds a separate entry of the source.

Series [1] concerns the target FGFR1 (Homo sapiens, UniProt P11362). The series is described as follows: Inhibition of receptor tyrosine kinase activity at molecular level (ELISA, Poly(Glu,Tyr)4:1 substrate phosphorylation). Particulars: 10 nM compound; average of two independent experiments. It counts as biochemical. The method, then: (§1) Enzyme reaction substrate Poly(Glu, Tyr)4:1 was diluted with potassium-free PBS (10 mM sodium phosphate buffer, 150 mM NaCl, pH 7.2-7.4) to 20 μg/mL. […] The reaction was conducted under 37° C. for 12-16 hours. After the liquid was removed from the wells, the plate was washed three times with 200 μL/well of T-PBS (PBS containing 0.1% Tween-20), each for 5 minutes. The enzyme plate was dried in 37° C. dryer for 1-2 hours.
(§2) 50 μL ATP solution diluted with buffer (50 mM HEPES pH 7.4, 50 mM MgCl2, 0.5 mM MnCl2, 0.2 mM Na3VO4, 1 mM DTT) to a final concentration of 5 μM was added into each well. The compound was diluted with DMSO to a suitable concentration (1 μL/well) or the well contained the corresponding concentration of DMSO (negative control well) Then various kinase recombinant proteins diluted with 49 μL of reaction buffer was added to initiate the reaction. Each experiment required duplicate enzyme-free control well. The reaction was carried out for 1 hour on a 37° C. Shaker (100 rpm). The plate was washed three times with T-PBS. A dilution of the primary antibody PY99 was added (100 μL/well), and the reaction was conducted in a shaker at 37° C. for 0.5 hr. The plate was washed three times with T-PBS. A dilution of the horseradish peroxidase-labeled goat anti-mouse IgG secondary antibody was added (100 μL/well), and the reaction was conducted in a shaker at 37° C. for 0.5 hour. Plate was washed with T-PBS for three times. 2 mg/mL OPD coloration solution (diluted with 0.1 M citric acid-sodium citrate buffer containing 0.03% H2O2 (pH=5.4)) was added (100 μL/well), reacted for 1-10 minutes at 25° C. in dark. The reaction was quenched with 2M H2SO4 (50 μL/well), and read at 490 nm using a tunable microplate reader SPECTRA MAX 190.
(§3) The inhibition ratio of the sample was determined by the following formula: […]
(§4) The IC50 values were obtained via four-parameter regression analysis using the software supplied with the microplate reader.

Series [2] addresses KDR (Homo sapiens, UniProt P35968). The description is as above. Format: biochemical. Particulars: 10 nM compound; average of two independent experiments. The method, then: as §1, §2, §3, §4
The target in series [3] is RET (Homo sapiens, UniProt P07949). Described as above. It counts as biochemical. Particulars: 10 nM compound; average of two independent experiments. The method, then:
as §1, §2, §3, §4

Series [4] has as its system human gastric cancer SNU-16 xenografts. The series is described as follows: Growth of subcutaneous xenografts of human gastric cancer SNU-16 in nude mice (comparative compounds study). Particulars: for Weight (g, mean ± SD): SNU-16 tumor-bearing mice.
Procedure: The tumor tissue in the vigorous growth period was cut into 1.5 mm^3, and inoculated subcutaneously in the right axilla of nude mice under aseptic conditions. The diameter of the xenograft in nude mice was measured with a vernier caliper. The animals were randomly divided into groups when the average tumor volume was grown to about 190 mm^3. […] The diameter of the xenograft was measured twice a week during the entire experiment, and the body weight of the mice was weighed. The tumor volume (TV) was calculated as: TV=½×a×b^2, where a and b represented length and width, respectively. The relative tumor volume (RTV) was calculated based on the measured results, and the formula was: RTV=Vt/V0, wherein V0 represented the tumor volume obtained when the mice was divided and administered (i.e., d0), and Vt represented the tumor volume at each measurement. The anti-tumor activity evaluation index was the relative tumor proliferation rate T/C (%), and the calculation formula was as follows: T/C (%)=(TRTV/CRTV)×100%, wherein TRTV was TRV in treatment group; and CRTV was RTV in negative control group.

RET, sequence (P07949 29-1114): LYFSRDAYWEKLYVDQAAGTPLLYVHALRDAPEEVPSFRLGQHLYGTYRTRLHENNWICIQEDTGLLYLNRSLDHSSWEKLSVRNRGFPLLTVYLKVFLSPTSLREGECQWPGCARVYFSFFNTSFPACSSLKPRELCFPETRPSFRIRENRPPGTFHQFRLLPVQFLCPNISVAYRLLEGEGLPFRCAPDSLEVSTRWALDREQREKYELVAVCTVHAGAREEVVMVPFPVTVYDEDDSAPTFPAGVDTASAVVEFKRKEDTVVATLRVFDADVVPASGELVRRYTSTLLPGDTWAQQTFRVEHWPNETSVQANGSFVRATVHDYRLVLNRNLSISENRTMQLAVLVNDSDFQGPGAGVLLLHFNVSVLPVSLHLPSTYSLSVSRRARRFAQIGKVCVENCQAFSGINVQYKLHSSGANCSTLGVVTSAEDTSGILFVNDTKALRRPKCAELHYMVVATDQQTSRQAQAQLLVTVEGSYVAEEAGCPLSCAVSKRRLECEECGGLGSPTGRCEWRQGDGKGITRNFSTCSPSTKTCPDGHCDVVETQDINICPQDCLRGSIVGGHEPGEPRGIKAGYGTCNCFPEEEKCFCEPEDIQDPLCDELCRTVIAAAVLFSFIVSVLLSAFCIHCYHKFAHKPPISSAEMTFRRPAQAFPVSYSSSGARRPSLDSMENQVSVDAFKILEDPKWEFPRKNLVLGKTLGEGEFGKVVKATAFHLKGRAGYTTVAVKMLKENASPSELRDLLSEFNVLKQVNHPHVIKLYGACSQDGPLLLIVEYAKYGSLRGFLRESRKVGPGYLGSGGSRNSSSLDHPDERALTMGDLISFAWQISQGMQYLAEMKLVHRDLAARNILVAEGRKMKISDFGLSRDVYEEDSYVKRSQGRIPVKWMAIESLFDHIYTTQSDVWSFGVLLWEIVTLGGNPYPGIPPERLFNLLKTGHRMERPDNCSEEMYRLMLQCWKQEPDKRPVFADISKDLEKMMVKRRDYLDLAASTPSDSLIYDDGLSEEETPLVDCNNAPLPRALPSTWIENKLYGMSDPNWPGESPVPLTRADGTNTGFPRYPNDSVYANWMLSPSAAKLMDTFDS
KDR, sequence (P35968 20-1356): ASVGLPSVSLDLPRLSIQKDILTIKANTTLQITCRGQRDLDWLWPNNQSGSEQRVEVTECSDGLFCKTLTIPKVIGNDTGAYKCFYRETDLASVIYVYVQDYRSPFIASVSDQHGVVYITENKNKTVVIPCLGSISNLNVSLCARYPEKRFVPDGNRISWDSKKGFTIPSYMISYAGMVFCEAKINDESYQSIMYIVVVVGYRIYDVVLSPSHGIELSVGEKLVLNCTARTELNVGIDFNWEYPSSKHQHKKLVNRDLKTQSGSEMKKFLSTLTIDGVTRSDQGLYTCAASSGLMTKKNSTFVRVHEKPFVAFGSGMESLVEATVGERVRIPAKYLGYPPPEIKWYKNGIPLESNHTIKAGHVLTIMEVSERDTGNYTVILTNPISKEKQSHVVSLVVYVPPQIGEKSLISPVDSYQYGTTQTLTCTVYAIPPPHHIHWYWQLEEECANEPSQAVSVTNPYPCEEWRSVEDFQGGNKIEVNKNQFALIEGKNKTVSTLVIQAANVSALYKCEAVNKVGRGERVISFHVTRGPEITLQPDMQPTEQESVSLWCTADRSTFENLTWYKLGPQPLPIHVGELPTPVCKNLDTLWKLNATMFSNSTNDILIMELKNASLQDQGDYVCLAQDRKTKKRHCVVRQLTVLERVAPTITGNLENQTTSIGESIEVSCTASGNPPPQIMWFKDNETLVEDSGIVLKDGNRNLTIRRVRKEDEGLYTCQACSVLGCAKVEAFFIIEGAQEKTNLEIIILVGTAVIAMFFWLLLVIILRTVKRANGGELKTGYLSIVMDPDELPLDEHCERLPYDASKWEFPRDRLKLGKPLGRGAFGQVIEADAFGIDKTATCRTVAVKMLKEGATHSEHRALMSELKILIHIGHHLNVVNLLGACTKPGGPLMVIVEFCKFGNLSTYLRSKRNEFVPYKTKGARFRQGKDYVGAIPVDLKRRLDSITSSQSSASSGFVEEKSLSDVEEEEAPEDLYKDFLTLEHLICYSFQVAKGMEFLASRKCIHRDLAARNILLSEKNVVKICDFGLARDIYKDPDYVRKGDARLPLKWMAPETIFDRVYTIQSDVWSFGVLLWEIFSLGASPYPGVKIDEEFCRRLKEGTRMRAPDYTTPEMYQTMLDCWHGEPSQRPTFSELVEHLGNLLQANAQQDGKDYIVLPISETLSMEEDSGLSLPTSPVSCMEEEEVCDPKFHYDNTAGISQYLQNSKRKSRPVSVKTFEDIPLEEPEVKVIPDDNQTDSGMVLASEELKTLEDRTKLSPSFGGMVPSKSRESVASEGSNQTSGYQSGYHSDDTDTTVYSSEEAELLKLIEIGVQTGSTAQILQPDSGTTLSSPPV
FGFR1, sequence (P11362 22-822): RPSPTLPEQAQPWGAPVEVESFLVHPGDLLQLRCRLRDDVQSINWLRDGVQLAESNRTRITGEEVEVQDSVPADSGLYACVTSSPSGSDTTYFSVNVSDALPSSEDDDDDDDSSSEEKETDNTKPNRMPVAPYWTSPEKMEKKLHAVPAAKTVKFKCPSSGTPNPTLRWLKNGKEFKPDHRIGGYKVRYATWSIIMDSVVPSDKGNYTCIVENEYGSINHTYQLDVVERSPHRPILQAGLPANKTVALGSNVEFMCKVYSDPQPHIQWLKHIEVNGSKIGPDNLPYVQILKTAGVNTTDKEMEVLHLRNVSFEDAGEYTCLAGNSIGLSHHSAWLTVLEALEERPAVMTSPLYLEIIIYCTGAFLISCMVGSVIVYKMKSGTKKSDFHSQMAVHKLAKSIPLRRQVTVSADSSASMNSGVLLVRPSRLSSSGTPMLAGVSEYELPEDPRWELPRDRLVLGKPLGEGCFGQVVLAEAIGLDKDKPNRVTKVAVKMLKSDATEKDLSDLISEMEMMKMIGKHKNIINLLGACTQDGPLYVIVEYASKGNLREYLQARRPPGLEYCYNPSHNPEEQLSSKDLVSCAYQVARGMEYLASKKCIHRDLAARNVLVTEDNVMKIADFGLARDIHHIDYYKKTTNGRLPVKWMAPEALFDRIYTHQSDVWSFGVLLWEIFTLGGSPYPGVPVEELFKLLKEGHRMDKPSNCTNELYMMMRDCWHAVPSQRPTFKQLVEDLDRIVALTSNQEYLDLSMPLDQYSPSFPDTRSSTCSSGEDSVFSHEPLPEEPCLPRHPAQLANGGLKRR

Regarding `CN1CCN(Cc2ccc(NC(=O)c3ccc(F)c(C#Cc4cccnc4N)c3)cc2C(F)(F)F)CC1` [Example 2], the “10 nM inhibition ratio FGFR1” value in series [1] amounted to 73.0. Further, the “10 nM inhibition ratio KDR” value in series [2] turned out to be 44.3. For the same compound, the “10 nM inhibition ratio RET” value in series [3] stood at 69.2.
For the compound `Cc1ccc(C(=O)Nc2ccc(CN3CCN(C)CC3)c(C(F)(F)F)c2)cc1C#Cc1cccnc1N` [Example 3], the “10 nM inhibition ratio FGFR1” value in series [1] turned out to be 52.4. Also, the “10 nM inhibition ratio KDR” value in series [2] is recorded as 34.7. Besides, the “10 nM inhibition ratio RET” value in series [3] was determined as 69.1.
Consider `COc1ccc(C(=O)Nc2ccc(CN3CCN(C)CC3)c(C(F)(F)F)c2)cc1C#Cc1cccnc1N` [Example 4], for which the “10 nM inhibition ratio FGFR1” value in series [1] turned out to be 51.1. Further, the “10 nM inhibition ratio KDR” value in series [2] was found to be 4.6. For the same compound, in series [3], the “10 nM inhibition ratio RET” value came out at 52.0.
Take `CN1CCN(Cc2ccc(NC(=O)c3ccc(C#N)c(C#Cc4cccnc4N)c3)cc2C(F)(F)F)CC1` [Example 5]: the “10 nM inhibition ratio FGFR1” value in series [1] was determined as 45.1. For the same compound, the “10 nM inhibition ratio KDR” value in series [2] is recorded as 15.2. Besides, in series [3], the “10 nM inhibition ratio RET” value was 40.1.
On to `CN1CCN(Cc2ccc(NC(=O)c3cc(F)cc(C#Cc4cccnc4N)c3)cc2C(F)(F)F)CC1` [Example 7], for which the “10 nM inhibition ratio FGFR1” value in series [1] is listed as 80.7. For the same compound, in series [2], the “10 nM inhibition ratio KDR” value is on record as 38.9. In addition, the “10 nM inhibition ratio RET” value in series [3] is reported as 92.4.
Take `CN1CCN(Cc2ccc(NC(=O)c3cc(C#Cc4cccnc4N)ccc3F)cc2C(F)(F)F)CC1` [Example 8]: in series [1], the “10 nM inhibition ratio FGFR1” value is listed as 46.0. Further, the “10 nM inhibition ratio KDR” value in series [2] was found to be 30.4. Also, the “10 nM inhibition ratio RET” value in series [3] is reported as 53.4.
For the compound `CN1CCN(Cc2ccc(NC(=O)c3cc(Cl)cc(C#Cc4cccnc4N)c3)cc2C(F)(F)F)CC1` [Example 9], the “10 nM inhibition ratio FGFR1” value in series [1] is given as 60.7. The “10 nM inhibition ratio KDR” value in series [2] was 28.9. Moreover, the “10 nM inhibition ratio RET” value in series [3] is reported as 83.4.
For `CN1CCN(Cc2ccc(NC(=O)c3cc(C#Cc4cccnc4N)cc(C(F)(F)F)c3)cc2C(F)(F)F)CC1` [Example 10], the “10 nM inhibition ratio FGFR1” value in series [1] is listed as 36. Further, in series [2], the “10 nM inhibition ratio KDR” value was determined as 34.5. Further, in series [3], the “10 nM inhibition ratio RET” value is given as 63.4.
Turning to `CN1CCN(Cc2ccc(NC(=O)c3cc(C#N)cc(C#Cc4cccnc4N)c3)cc2C(F)(F)F)CC1` [Example 11], the “10 nM inhibition ratio FGFR1” value in series [1] turned out to be 54.0. Moreover, the “10 nM inhibition ratio KDR” value in series [2] is 34.3. Besides, in series [3], the “10 nM inhibition ratio RET” value was determined as 68.2.
Regarding `Cc1cc(C#Cc2cccnc2N)cc(C(=O)Nc2ccc(CN3CCN(C)CC3)c(C(F)(F)F)c2)c1` [Example 12], in series [1], the “10 nM inhibition ratio FGFR1” value is 75.1. In addition, the “10 nM inhibition ratio KDR” value in series [2] is on record as 24.0. The “10 nM inhibition ratio RET” value in series [3] is listed as 73.2.
Regarding `COc1cc(C#Cc2cccnc2N)cc(C(=O)Nc2ccc(CN3CCN(C)CC3)c(C(F)(F)F)c2)c1` [Example 13], the “10 nM inhibition ratio FGFR1” value in series [1] came to 70.2. In addition, the “10 nM inhibition ratio KDR” value in series [2] is recorded as 15.1. Besides, the “10 nM inhibition ratio RET” value in series [3] is on record as 64.3.
As for `Cc1ccc(C#Cc2cccnc2N)cc1C(=O)Nc1ccc(CN2CCN(C)CC2)c(C(F)(F)F)c1` [Example 14], the “10 nM inhibition ratio FGFR1” value in series [1] was 46.1. Moreover, the “10 nM inhibition ratio KDR” value in series [2] is 20.3. Besides, the “10 nM inhibition ratio RET” value in series [3] is 57.6.
For the compound `COc1ccc(C#Cc2cccnc2N)cc1C(=O)Nc1ccc(CN2CCN(C)CC2)c(C(F)(F)F)c1` [Example 15], the “10 nM inhibition ratio FGFR1” value in series [1] was determined as 59.9. Moreover, the “10 nM inhibition ratio KDR” value in series [2] is reported as 15.4. Besides, in series [3], the “10 nM inhibition ratio RET” value is reported as 61.2.
For the compound `CN1CCN(Cc2ccc(NC(=O)c3ccc(Cl)c(C#Cc4cc(F)cnc4N)c3)cc2C(F)(F)F)CC1` [Example 16], the “10 nM inhibition ratio FGFR1” value in series [1] is reported as 70.5. In series [2], the “10 nM inhibition ratio KDR” value stood at 25.2. In addition, the “10 nM inhibition ratio RET” value in series [3] amounted to 71.8.
On to `CN1CCN(Cc2ccc(NC(=O)c3ccc(Cl)c(C#Cc4cc(Cl)cnc4N)c3)cc2C(F)(F)F)CC1` [Example 17], for which, in series [1], the “10 nM inhibition ratio FGFR1” value is recorded as 68.0. For the same compound, in series [2], the “10 nM inhibition ratio KDR” value worked out at 25.0. Moreover, the “10 nM inhibition ratio RET” value in series [3] worked out at 73.3.
Turning to `Cc1cnc(N)c(C#Cc2cc(C(=O)Nc3ccc(CN4CCN(C)CC4)c(C(F)(F)F)c3)ccc2Cl)c1` [Example 18], the “10 nM inhibition ratio FGFR1” value in series [1] is given as 65.5. Besides, the “10 nM inhibition ratio KDR” value in series [2] came out at 20.3. Moreover, the “10 nM inhibition ratio RET” value in series [3] was found to be 58.2.
The like results for `CN1CCN(Cc2ccc(NC(=O)c3ccc(Cl)c(C#Cc4cc(C5CC5)cnc4N)c3)cc2C(F)(F)F)CC1` [Example 19] were, in that order, 59.3, 13.2 and 69.4.
In the case of `CN1CCN(Cc2ccc(NC(=O)c3ccc(Cl)c(C#Cc4cc(C(F)(F)F)cnc4N)c3)cc2C(F)(F)F)CC1` [Example 20], in series [1], the “10 nM inhibition ratio FGFR1” value is on record as 71.1. For the same compound, in series [2], the “10 nM inhibition ratio KDR” value amounted to 23.4. Also, the “10 nM inhibition ratio RET” value in series [3] is 70.8.
Regarding `CN1CCN(Cc2ccc(NC(=O)c3ccc(Cl)c(C#Cc4cncc(N5CCOCC5)c4)c3)cc2C(F)(F)F)CC1` [HuFGFR1-113], the animal deaths entry in series [4] (SNU-16, 20 mg/kg group) is “one mouse died on day 20”; in series [4] (SNU-16, 100 mg/kg group) it was “One mouse died on the third day; also recorded: Two mice died on the fifth day”. Besides, the “Relative tumor volume RTV (mean ± SD)” value in series [4] (SNU-16, 20 mg/kg orally once a day, d0) is reported as 1.00 ± 0.00; in series [4] (SNU-16, 20 mg/kg orally once a day, d3), 1.12 ± 0.03; in series [4] (SNU-16, 20 mg/kg orally once a day, d7) it was 0.64 ± 0.23; in series [4] (SNU-16, 20 mg/kg orally once a day, d10), 0.54 ± 0.22; in series [4] (SNU-16, 20 mg/kg orally once a day, d14), 0.92 ± 0.17; in series [4] (SNU-16, 20 mg/kg orally once a day, d17) it was 1.18 ± 0.42. Besides, the “Relative tumor volume RTV (mean ± SD)” value in series [4] (SNU-16, 20 mg/kg orally once a day, d21) was 1.35 ± 0.15; in series [4] (SNU-16, 100 mg/kg orally once a day (administration interrupted), d0), 1.00 ± 0.00; in series [4] (SNU-16, 100 mg/kg orally once a day (administration interrupted), d3) it was 1.32 ± 0.40; in series [4] (SNU-16, 100 mg/kg orally once a day (administration interrupted), d7), 0.58 ± 0.02; in series [4] (SNU-16, 100 mg/kg orally once a day (administration interrupted), d10), 0.60 ± 0.02; in series [4] (SNU-16, 100 mg/kg orally once a day (administration interrupted), d14) it was 0.58 ± 0.35. Also, the “Relative tumor volume RTV (mean ± SD)” value in series [4] (SNU-16, 100 mg/kg orally once a day (administration interrupted), d17) is reported as 1.16 ± 0.86; in series [4] (SNU-16, 100 mg/kg orally once a day (administration interrupted), d21), 1.52 ± /. For the same compound, in series [4] (SNU-16, 20 mg/kg orally once a day, day 21), the “relative tumor proliferation rate T/C” value is recorded as 23.30%. In series [4] (SNU-16, 100 mg/kg group), the “toxicity / condition of the mice (in words)” value is reported as “significant toxicity”. For the same compound, the “weight of the tumor-bearing mice (in words)” value in series [4] (SNU-16, HuFGFR1-113 at 20 mg/kg, HuFGFR1-117 dose not stated) is recorded as “decreased significantly”. Moreover, the “Weight (g, mean ± SD)” value was determined as 23.2 ± 1.8 g in series [4] (20 mg/kg orally once a day, d0); 24.0 ± 1.5 g in series [4] (20 mg/kg orally once a day, d3); 22.4 ± 1.8 g in series [4] (20 mg/kg orally once a day, d7); 20.2 ± 1.9 g in series [4] (20 mg/kg orally once a day, d10); 19.7 ± 2.9 g in series [4] (20 mg/kg orally once a day, d14); 20.1 ± 3.7 g in series [4] (20 mg/kg orally once a day, d17). Moreover, the “Weight (g, mean ± SD)” value in series [4] (20 mg/kg orally once a day, d21) was determined as 20.3 ± 1.6 g; in series [4] (100 mg/kg orally once a day (administration interrupted), d0), 23.4 ± 2.7 g; in series [4] (100 mg/kg orally once a day (administration interrupted), d3), 23.1 ± 2.0 g; in series [4] (100 mg/kg orally once a day (administration interrupted), d7), 20.7 ± 0.1 g; in series [4] (100 mg/kg orally once a day (administration interrupted), d10), 22.1 ± 0.4 g; in series [4] (100 mg/kg orally once a day (administration interrupted), d14) it was 25.4 ± 1.6 g. Moreover, the “Weight (g, mean ± SD)” value in series [4] (100 mg/kg orally once a day (administration interrupted), d17) was 25.5 ± 3.0 g; in series [4] (100 mg/kg orally once a day (administration interrupted), d21), 21.2 ± / g.
